6 compounds from patent US20220251126A1, “ANTICANCER AGENTS” (Yissum Research Development Company of the Hebrew …, priority 2019, published 2022) can be followed below.

Read-outs that look alike come from different tables or passages of the source.

One data set concerns A2780. Nature of the data set: MTT cytotoxicity, ovarian cancer cells A2780. In kind it is cell-based, human. The method, then:
(§1) Cell cultures. The human ovarian A2780 and A2780cisR cancer were obtained from the American Type Culture Collection (ATCC, Rockville, Md.). Cell lines were maintained in the logarithmic phase at 37° C. under a 5% carbon dioxide atmosphere using RPMI 1640 medium containing 10% fetal calf serum, antibiotics (50 units per mL penicillin and 50 μg mL^−1 streptomycin) and 2 mM L-glutamine. MTT assay. The growth inhibitory effect towards human cell lines was evaluated by means of MTT (tetrazolium salt reduction) assay. Briefly, 3-8×10^3 cells per well, dependent upon the growth characteristics of the cell line, were seeded in 96-well microplates in growth medium (100 μL) and then incubated at 37° C. under a 5% carbon dioxide atmosphere. After 24 h, the medium was removed and replaced with a fresh one containing the compound to be studied at an appropriate concentration. Triplicate cultures were established for each treatment. After 72 h, each well was treated with 10 μL of a 5 mg mL^−1 MTT (3-(4,5-dimethylthiazol-2-yl)-2,5-diphenyltetrazoliumbromide) solution, and after additional 5 h, 100 μL of a sodium dodecyl sulfate (SDS) solution in 0.01 M HCl were added. Following overnight incubation, the inhibition of cell growth induced by the tested complexes was detected by measuring the absorbance of each well at 570 nm using a Bio-Rad 680 microplate reader (Bio-Rad, Hercules, CA).The mean absorbance for each drug dose was expressed as a percentage of the control untreated well absorbance and plotted vs. drug concentration.

The test system of the next data set is PC9. As to the kind of experiment: Cytotoxicity, PC9 cells. In kind it is cell-based, human.
The subject of a further data set is A375. Nature of the data set: Cytotoxicity, A375 cells. It counts as cell-based, human.
The next data set concerns A2780cisR. As to the kind of experiment: MTT cytotoxicity, cisplatin resistant line A2780cisR. In kind it is cell-based, human. The method, then: as §1
Details of data set [1]: species or system C57BL mice. As to conditions: mouse, in vivo. The method, then:
In vivo anticancer activity toward Lewis lung carcinoma (LLC). All studies involving animal testing were carried out in accordance with ethical guidelines for animal research acknowledging the European Directive 2010/63/UE as to the animal welfare and protection and the related codes of practice. The mice were purchased from Charles River, housed in steel cages under controlled environmental conditions (constant temperature, humidity, and 12 h dark/light cycle), and alimented with commercial standard feed and tap water ad libitum. The LLC cell line was purchased from ECACC, United Kingdom. […] At day 15, animals were sacrificed, the legs were amputated at the proximal end of the femur, and the inhibition of tumor growth was determined from the difference in the weights of the tumor-bearing leg and the healthy leg of the animals, expressed as a percentage referenced to the control animals Body weight was measured at day 0 and from day 7 onwards every 2 days and was taken as a parameter for systemic toxicity. […]
Moreover, it provides no information on the toxicity of the compounds. […] As an estimation of the adverse side effects, changes in the body weights were monitored every two days.

Data set [2] has as its system Lewis lung carcinoma (LLC). Nature of the data set: In vivo anticancer activity toward Lewis lung carcinoma (LLC) solid tumor. On the set-up: species or system C57BL mice. The note with it: for reduction of tumor growth / tumor mass compared to the control group: LLC model, day 15, rounded values of the text; for In vivo efficacy LLC Inhibition of tumor growth (%) / In vivo efficacy LLC tumor weight: Table 1, daily dose 20 (Gem-Carb complex, oral), 3 (cisplatin), 60 (gemcitabine); for In vivo efficacy LLC Inhibition of tumor growth (%): day 15, vs control, 60 + 3 (combination) mg kg^-1; for In vivo efficacy LLC tumor weight / Average tumor weight (mean ± SD, g) / Inhibition of tumor growth (%): day 15; for In vivo efficacy LLC tumor weight: 60 + 3 (combination) mg kg^-1, days 7-14; for Average tumor weight (mean ± SD, g) / Inhibition of tumor growth (%): Table 2, daily oral 20 mg kg^-1 Gem-Carb complex, daily i.p. 3 mg kg^-1 cisplatin, 60 mg kg^-1 Gem or combination, days 7-14. The method, then:
In vivo anticancer activity toward Lewis lung carcinoma (LLC). All studies involving animal testing were carried out in accordance with ethical guidelines for animal research acknowledging the European Directive 2010/63/UE as to the animal welfare and protection and the related codes of practice. The mice were purchased from Charles River, housed in steel cages under controlled environmental conditions (constant temperature, humidity, and 12 h dark/light cycle), and alimented with commercial standard feed and tap water ad libitum. The LLC cell line was purchased from ECACC, United Kingdom. The LLC cell line was maintained in DMEM (Euroclone) supplemented with 10% heat inactivated fetal bovine serum (Euroclone), 10 mM L-glutamine, 100 U mL-1 penicillin, and 100 μg mL^−1 streptomycin in a 5% CO2 air incubator at 37° C. The LLC was implanted intramuscularly (i.m.) as a 2×10^6 cell inoculum into the right hind leg of 8 week old male and female C57BL mice (24±3 g body weight). […] Control mice received the vehicle (0.5% DMSO (v/v) and 99.5% of a saline solution (v/v)), whereas treated groups received daily doses of ctc-[Pt(NH3)2(Gem-Carb)(PhB)Cl2] […] At day 15, animals were sacrificed, the legs were amputated at the proximal end of the femur, and the inhibition of tumor growth was determined from the difference in the weights of the tumor-bearing leg and the healthy leg of the animals, expressed as a percentage referenced to the control animals Body weight was measured at day 0 and from day 7 onwards every 2 days and was taken as a parameter for systemic toxicity. All presented values are the means ±SD of no less than three measurements.
Moreover, it provides no information on the toxicity of the compounds. […] Seven days after tumor inoculation the tumor-bearing mice were randomized into vehicle control and treatment groups. Control mice received the vehicle (0.5% DMSO (v/v) and 99.5% of a saline solution (v/v)), whereas treated groups received daily doses of ctc-[Pt(NH3)2(Gem-Carb)(PhB)Cl2] […] As an estimation of the adverse side effects, changes in the body weights were monitored every two days.

The nature of a further data set: physchem. In kind it is physicochemical. The method, then:
ctc-[Pt(NH3)2(Tax-Carb)(OH)Cl2] (3 mg, 0.0025 mmol) was dissolve in 750 μL of DMSO-d6 and mixed with ascorbic acid (2.2 mg, 0.0125 mmol). The ^1H NMR spectra were recorded every 6 min at 37° C.
We incubated ctc-[Pt(NH3)2(Tax-Carb)(OH)Cl2] with 5 eq of ascorbate and the reduction was followed by ^1H NMR. The NH proton in ctc-[Pt(NH3)2(Tax-Carb)(OH)Cl2] resonates at 9.2 ppm and in free taxol at ˜8.85 ppm. […] Similar results were obtained for the reduction of ctc-[Pt(NH3)2(EM-Carb)(OAc)Cl2] (FIG. 5A).

[3] abbreviates: Homo sapiens, A2780, Table 1, 72 h incubation, MTT, read-out: In vitro IC50 (μM) Cancer cell lines A2780.
Where [4] appears, read: Homo sapiens, A2780cisR, Table 1, 72 h incubation, MTT, read-out: In vitro IC50 (μM) Cancer cell lines A2780cisR.

With `N.N.[Cl-].[Cl-].[OH-].[OH-].[Pt+4]` [Oxoplatin, oxoplatin], the IC50 stood at 0.45 µM with A2780 (Table 3, unit μM, read-out: Cytotoxicity data A2780 mean); 3.99 µM with PC9 (Table 3, unit μM, read-out: Cytotoxicity data PC9 mean); 2.21 µM in the data set on A375 (Table 3, unit μM, read-out: Cytotoxicity data A375 mean); 1.17 µM with A2780cisR (Table 3, unit μM, read-out: Cytotoxicity data A2780 res mean).

As to `COc1ccc(/C=C\c2cc(OC)c(OC)c(OC)c2)cc1O` [CA4, combretastatin-A4], the IC50 in the data set with A2780 (Table 3, unit nM, read-out: Cytotoxicity data A2780 mean) was determined as 0.00212 µM; in the data set with PC9 (Table 3, unit nM, read-out: Cytotoxicity data PC9 mean) it was 0.00487 µM; in the data set on A375 (Table 3, unit nM, read-out: Cytotoxicity data A375 mean) it was 0.00163 µM; with A2780cisR (Table 3, unit nM, read-out: Cytotoxicity data A2780 res mean), 0.00263 µM.

In the case of `Nc1ccn([C@@H]2O[C@H](CO)[C@@H](O)C2(F)F)c(=O)n1` [Gemcitabine, gemcitabine], the IC50 in the data set on A2780 (setting [3]) came to 0.002 ± 0.001 µM. The body weight loss in data set [1] is listed as ~20%. In data set [2], the “reduction of tumor growth / tumor mass compared to the control group” value is “about 80%”; the “In vivo efficacy LLC Inhibition of tumor growth (%)” value was 80.5%; the “In vivo efficacy LLC tumor weight” value was 0.08 ± 0.2 g; the “Average tumor weight (mean ± SD, g)” value is 0.080 ± 0.2 g. Also, the “Inhibition of tumor growth (%)” value in data set [2] is 80.5%. Besides, the IC50 in the data set on A2780cisR (setting [4]) worked out at 0.005 ± 0.001 µM.

Consider `CC(=O)OC1C(=O)C2(C)C(O)CC3OCC3(OC(C)=O)C2C(OC(=O)c2ccccc2)C2(O)CC(OC(=O)C(OC(=O)[O][Pt]([NH2])([NH2])([OH])([Cl])[Cl])C(NC(=O)c3ccccc3)c3ccccc3)C(C)=C1C2(C)C` (stereo not shown) [ctc-[Pt(NH3)2(Tax-Carb)(OH)Cl2]], for which, in “physchem”, the half-life at 3.3 mM amounted to 25 min.

Regarding `N.N.[Cl][Pt][Cl]` [Cisplatin, cisplatin], in data set [2], the “reduction of tumor growth / tumor mass compared to the control group” value is on record as ~90%; the “In vivo efficacy LLC Inhibition of tumor growth (%)” value turned out to be 90.3%; the “In vivo efficacy LLC tumor weight” value was found to be 0.040 ± 0.01 g; the “Average tumor weight (mean ± SD, g)” value was found to be 0.040 ± 0.01 g. For the same compound, in data set [2], the “Inhibition of tumor growth (%)” value is 90.3%.

With `CC(=O)O[C@H]1C(=O)[C@@]2(C)[C@H]([C@H](OC(=O)c3ccccc3)[C@]3(O)C[C@H](OC(=O)[C@H](O)[C@@H](NC(=O)c4ccccc4)c4ccccc4)C(C)=C1C3(C)C)[C@]1(OC(C)=O)CO[C@@H]1C[C@@H]2O` [Taxol, Paclitaxel], the IC50 was 0.0022 ± 0.001 µM in the data set on A2780 (setting [3]); 0.00105 µM in the data set with A2780 (Homo sapiens, A2780, Table 4, cells in nM, read-out: Cytotoxicity data A2780); 0.0045 µM in the data set on PC9 (Homo sapiens, PC-9, Table 4, cells in nM, read-out: Cytotoxicity data PC9); 0.01 µM in the data set with A375 (Homo sapiens, A-375, Table 4, cells in nM, read-out: Cytotoxicity data A375); 0.003 ± 6e-05 µM with A2780cisR (setting [4]); 0.0031 µM with A2780cisR (Homo sapiens, A2780cisR, Table 4, cells in nM, read-out: Cytotoxicity data A2890cisR).
